The values below come from PMC5439695 (PLoS ONE, 2017).

One assay relates to estrogen receptor (ER). Conditions: cited from earlier work; for AUC score in Judson 2015: ER antagonist, ToxCast chemicals only, ref Judson 2015; for ER antagonist AUC score: pathway-level model using all Tox21/ToxCast ER assays of 1812 ToxCast chemicals.
For assay [1], the system named is HEK293 and HepG2 cell lines. Conditions: for Cyto(realtime)_max / Cyto(realtime)_median: POD potency; for Cyto(realtime)_max: max over real-time cytotoxicity assays; for Cyto(realtime)_median: median over real-time cytotoxicity assays.
In assay [2] the test system is HepG2 cells. As to conditions: HepG2 glo.
For assay [3], the system named is HEK293 cells. Conditions: HEK293 glo.
Assay [4] concerns HepG2 cells. In words: CellTox Green Cytotoxicity Assay (flor) in HepG2, HepG2[flor].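 On hepg2 flor emax 0: percent activity versus DMSO-only wells with baseline rescaled to 0%.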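 On hepg2 flor emax 40: percent activity versus DMSO-only wells with baseline rescaled to 0%.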 Conditions: HepG2 flor. It is filed as cell-based, human.
Assay [5] relates to HEK293 cells. Conditions: HEK293 flor.
Setting [6] is: time point 8, given as negative log-scale values.
The mark [7] stands for this setting: time point 16, given as negative log-scale values.
Setting [8] is: time point 24, given as negative log-scale values.
Where [9] appears, read: time point 32, given as negative log-scale values.
The mark [10] stands for this setting: time point 40, given as negative log-scale values.

Structures can show the parent of a compound that is named as a salt.

As to `C[C@@]1(c2ccc(Oc3ccccc3)cc2)OC(=O)N(Nc2ccccc2)C1=O` (racemic) [Famoxadone], the “AUC score in Judson 2015” value with estrogen receptor (ER) is listed as 0.000714.

For `CCC(C)(C)c1ccc(O)c(C(C)(C)CC)c1` [2,4-Bis(2-methylbutan-2-yl)phenol], the “AUC score in Judson 2015” value in the assay with estrogen receptor (ER) is given as 0.00113.

For the compound `CC(C)(C)c1ccc(O)c(C(C)(C)C)c1` [2,4-Di-tert-butylphenol], the “AUC score in Judson 2015” value with estrogen receptor (ER) is given as 0.

For `CCCCNC(=O)OCC#CI` [3-Iodo-2-propynyl-N-butylcarbamate], in assay [1], the “Cyto(realtime)_max” value was 5.74 log10(M)*-1 and the “Cyto(realtime)_median” value was 4.62 log10(M)*-1. For the same compound, in the assay on estrogen receptor (ER), the “AUC score in Judson 2015” value is given as 0.0283.

For the compound `CC/C(=C(\c1ccc(O)cc1)c1ccc(OCCN(C)C)cc1)c1ccccc1` [4-Hydroxytamoxifen], in the assay on estrogen receptor (ER), the “AUC score in Judson 2015” value was 0.686.

In the case of `CC(C)c1cccc(C(C)C)c1N1C(=O)c2ccc(O)cc2C1=O` [5HPP-33], in assay [1], the “Cyto(realtime)_max” value is 4.71 log10(M)*-1 and the “Cyto(realtime)_median” value is on record as 4.30 log10(M)*-1. Also, in the assay on estrogen receptor (ER), the “AUC score in Judson 2015” value was 0.

Take `O=C1C2CC=CCC2C(=O)N1SC(Cl)(Cl)Cl` (stereo not drawn) [Captan]: in the assay on estrogen receptor (ER), the “AUC score in Judson 2015” value is on record as 0.

`Clc1ccccc1C(c1ccccc1)(c1ccccc1)n1ccnc1` [Clotrimazole, reference compound]: the “AUC score in Judson 2015” value in the assay with estrogen receptor (ER) is recorded as 0.00844.

Turning to `CC(C)(C)c1cc(/C=C2\SC(N)=NC2=O)cc(C(C)(C)C)c1O` [Darbufelone mesylate], the “AUC score in Judson 2015” value in the assay with estrogen receptor (ER) is 0.

In the case of `OC(c1ccc(Cl)cc1)(c1cncnc1)c1ccccc1Cl` (stereo not drawn) [Fenarimol], the “AUC score in Judson 2015” value with estrogen receptor (ER) is given as 0.000907.

`CCCCC(O)(Cn1cncn1)c1ccc(Cl)cc1Cl` (stereo not drawn) [Hexaconazole]: the “AUC score in Judson 2015” value with estrogen receptor (ER) is 0.00822.

Consider `CC(C)C1CCC(Cc2ccc(Cl)cc2)C1(O)Cn1cncn1` (stereo not drawn) [Ipconazole], for which the “AUC score in Judson 2015” value in the assay with estrogen receptor (ER) is on record as 0.0166.

In the assay with HepG2 cells [2], `CN(C)c1ccc(C(=C2C=CC(=[N+](C)C)C=C2)c2ccccc2)cc1.CN(C)c1ccc(C(=C2C=CC(=[N+](C)C)C=C2)c2ccccc2)cc1.O=C(O)C(=O)O.O=C([O-])C(=O)O.O=C([O-])C(=O)O` [Malachite green oxalate] displayed a hepg2_glo_auc of 1.838 and a hepg2_glo_time of 0. Moreover, the hepg2_glo_bin entry with HepG2 cells [2] (kinetics bin) is listed as “cv_16 (cv_16: 0 < time < 8)”. Also, in the assay with HepG2 cells [2] (time point 0), the hepg2_glo_emax_0 was found to be 0, the hepg2_glo_pod_0 is -4.417 and the hepg2_glo_wauc_0 is reported as 0. In the assay on HepG2 cells [2] (time point 8), this compound registered a hepg2_glo_emax_8 of -63.2822, a hepg2_glo_pod_8 of -5.131 and a hepg2_glo_wauc_8 of 1.514. Further, the hepg2_glo_ec50_8 in the assay with HepG2 cells [2] (setting [6]) was -4.735. In the assay on HepG2 cells [2] (time point 16), this compound came in with a hepg2_glo_emax_16 of -91.4856, a hepg2_glo_pod_16 of -5.607 and a hepg2_glo_wauc_16 of 1.892. The hepg2_glo_ec50_16 in the assay with HepG2 cells [2] (setting [7]) was -5.318. In the assay on HepG2 cells [2] (time point 24), the hepg2_glo_emax_24 is given as -91.3465, the hepg2_glo_pod_24 is listed as -5.6539 and the hepg2_glo_wauc_24 was 1.966. For the same compound, in the assay with HepG2 cells [2] (setting [8]), the hepg2_glo_ec50_24 is listed as -5.521. In the assay on HepG2 cells [2] (time point 32), this compound registered a hepg2_glo_emax_32 of -92.3669, a hepg2_glo_pod_32 of -5.816 and a hepg2_glo_wauc_32 of 2.064. In addition, the hepg2_glo_ec50_32 in the assay with HepG2 cells [2] (setting [9]) is recorded as -5.627. Moreover, in the assay with HepG2 cells [2] (time point 40), the hepg2_glo_emax_40 is -91.0249, the hepg2_glo_pod_40 is reported as -5.846 and the hepg2_glo_wauc_40 came to 2.087. In the assay with HepG2 cells [2] (setting [10]), this compound displayed a hepg2_glo_ec50_40 of -5.656. The information in assay [1] (any activity in any time point/assay) turned out to be 1. Besides, in the assay on HEK293 cells [3], the hek293_glo_auc is 1.897 and the hek293_glo_time is given as 8. Further, the hek293_glo_bin entry in the assay on HEK293 cells [3] (kinetics bin) is “cv_26 (cv_26: 8 < time < 16)”. In addition, in the assay with HEK293 cells [3] (time point 0), the hek293_glo_emax_0 is 0, the hek293_glo_pod_0 is -4.417 and the hek293_glo_wauc_0 was found to be 0. In the assay on HEK293 cells [3] (time point 8), the hek293_glo_emax_8 is on record as -47.964, the hek293_glo_pod_8 is -5.267 and the hek293_glo_wauc_8 came out at 1.621. This compound also registered a hek293_glo_ec50_8 in the assay with HEK293 cells [3] (setting [6]) of -5.275. In the assay with HEK293 cells [3] (time point 16), the hek293_glo_emax_16 is recorded as -74.3913, the hek293_glo_pod_16 is listed as -6.896 and the hek293_glo_wauc_16 is 2.239. In addition, in the assay on HEK293 cells [3] (setting [7]), the hek293_glo_ec50_16 was -5.71. In the assay on HEK293 cells [3] (time point 24), this compound had a hek293_glo_emax_24 of -84.5759, a hek293_glo_pod_24 of -6.8943 and a hek293_glo_wauc_24 of 2.321. For the same compound, the hek293_glo_ec50_24 with HEK293 cells [3] (setting [8]) was -6.073. Also, in the assay with HEK293 cells [3] (time point 32), the hek293_glo_emax_32 was -91.2313, the hek293_glo_pod_32 is given as -6.927 and the hek293_glo_wauc_32 is reported as 2.36. The same compound registered a hek293_glo_ec50_32 with HEK293 cells [3] (setting [9]) of -6.025. Moreover, in the assay with HEK293 cells [3] (time point 40), the hek293_glo_emax_40 is -94.0423, the hek293_glo_pod_40 was -6.941 and the hek293_glo_wauc_40 was 2.382. Moreover, the hek293_glo_ec50_40 in the assay on HEK293 cells [3] (setting [10]) is reported as -6.071. In the assay on HepG2 cells [4], this compound registered a hepg2_flor_auc of 1.813 and a hepg2_flor_time of 8. Moreover, the hepg2_flor_bin entry with HepG2 cells [4] (kinetics bin) is recorded as “cv_26 (cv_26: 8 < time < 16)”. In the assay on HepG2 cells [4] (time point 0), the hepg2_flor_emax_0 stood at 0, the hepg2_flor_pod_0 is listed as -4.417 and the hepg2_flor_wauc_0 was determined as 0. Further, in the assay with HepG2 cells [4] (time point 8), the hepg2_flor_emax_8 came to 44.8674, the hepg2_flor_pod_8 was -4.571 and the hepg2_flor_wauc_8 stood at 0.868. In the assay on HepG2 cells [4] (setting [6]), this compound came in with a hepg2_flor_ec50_8 of -4.591. For the same compound, in the assay with HepG2 cells [4] (time point 16), the hepg2_flor_emax_16 came out at 142.047, the hepg2_flor_pod_16 is reported as -5.554 and the hepg2_flor_wauc_16 is 1.871. This compound also displayed a hepg2_flor_ec50_16 in the assay with HepG2 cells [4] (setting [7]) of -4.76. Moreover, in the assay with HepG2 cells [4] (time point 24), the hepg2_flor_emax_24 worked out at 168.072, the hepg2_flor_pod_24 is -5.707 and the hepg2_flor_wauc_24 was determined as 2.035. In the assay on HepG2 cells [4] (setting [8]), the hepg2_flor_ec50_24 was -5.438. In the assay on HepG2 cells [4] (time point 32), this compound returned a hepg2_flor_emax_32 of 231.16, a hepg2_flor_pod_32 of -5.746 and a hepg2_flor_wauc_32 of 2.119. Besides, in the assay with HepG2 cells [4] (setting [9]), the hepg2_flor_ec50_32 is recorded as -5.498. Moreover, in the assay with HepG2 cells [4] (time point 40), the hepg2_flor_emax_40 is given as 275.23, the hepg2_flor_pod_40 is -6.016 and the hepg2_flor_wauc_40 was determined as 2.222. The compound also registered a hepg2_flor_ec50_40 with HepG2 cells [4] (setting [10]) of -5.565. In the assay on HEK293 cells [5], the hek293_flor_auc is recorded as 1.491 and the hek293_flor_time was determined as 24. Also, the hek293_flor_bin entry in the assay on HEK293 cells [5] (kinetics bin) is “cv_46 (cv_46: 24 < time < 32)”. Moreover, in the assay with HEK293 cells [5] (time point 0), the hek293_flor_emax_0 stood at 0, the hek293_flor_pod_0 is -4.417 and the hek293_flor_wauc_0 was 0. Further, in the assay on HEK293 cells [5] (time point 8), the hek293_flor_emax_8 is given as 0, the hek293_flor_pod_8 was -4.417 and the hek293_flor_wauc_8 turned out to be 0. Also, in the assay on HEK293 cells [5] (time point 16), the hek293_flor_emax_16 is 25.2441, the hek293_flor_pod_16 is -4.42 and the hek293_flor_wauc_16 amounted to 0.5325. The same compound showed a hek293_flor_ec50_16 in the assay with HEK293 cells [5] (setting [7]) of -4.591. In the assay on HEK293 cells [5] (time point 24), this compound yielded a hek293_flor_emax_24 of 72.6532, a hek293_flor_pod_24 of -4.806 and a hek293_flor_wauc_24 of 1.057. Moreover, the hek293_flor_ec50_24 in the assay on HEK293 cells [5] (setting [8]) is -4.702. In the assay on HEK293 cells [5] (time point 32), this compound gave a hek293_flor_emax_32 of 99.3082, a hek293_flor_pod_32 of -5.521 and a hek293_flor_wauc_32 of 1.407. This compound registered a hek293_flor_ec50_32 with HEK293 cells [5] (setting [9]) of -4.895. In the assay on HEK293 cells [5] (time point 40), this compound registered a hek293_flor_emax_40 of 135.684, a hek293_flor_pod_40 of -5.642 and a hek293_flor_wauc_40 of 1.5. In the assay on HEK293 cells [5] (setting [10]), this compound came in with a hek293_flor_ec50_40 of -5.028.

Regarding `O=C(c1ccc(OCCN2CCCCC2)cc1)c1c(-c2ccc(O)cc2)sc2cc(O)ccc12` [Raloxifene hydrochloride], the “AUC score in Judson 2015” value in the assay with estrogen receptor (ER) is recorded as 0.671.

As for `CC/C(=C(\c1ccccc1)c1ccc(OCCN(C)C)cc1)c1ccccc1` [Tamoxifen citrate], the “AUC score in Judson 2015” value in the assay on estrogen receptor (ER) is on record as 0.546.

`CC/C(=C(\c1ccccc1)c1ccc(OCCN(C)C)cc1)c1ccccc1` [Tamoxifen]: the “Cyto(realtime)_median” value in assay [1] is 4.64 log10(M)*-1. Besides, the “AUC score in Judson 2015” value with estrogen receptor (ER) was 0.447.

For the compound `CN[C@H]1CC[C@@H](c2ccc(Cl)c(Cl)c2)c2ccc(S(N)(=O)=O)cc21` [UK-373911], in assay [1], the “Cyto(realtime)_max” value was 5.12 log10(M)*-1 and the “Cyto(realtime)_median” value is listed as 4.70 log10(M)*-1. In the assay on estrogen receptor (ER), the “AUC score in Judson 2015” value is given as 6.68e-8.

With `CCCCCCCCCCCCOC(=O)c1cc(O)c(O)c(O)c1` [dodecyl gallate], in the assay on estrogen receptor (ER), the “AUC score in Judson 2015” value is listed as 0.0773 and the “ER antagonist AUC score” value is on record as “higher than 0.01”.

As for `CC[C@H](c1ccc(O)cc1)[C@@H](CC)c1ccc(O)cc1` [meso-Hexestrol], the “AUC score in Judson 2015” value in the assay on estrogen receptor (ER) is listed as 0.

For the compound `CCCCCCCCOC(=O)c1cc(O)c(O)c(O)c1` [octyl gallate], in the assay with estrogen receptor (ER), the “AUC score in Judson 2015” value was 0.0768 and the “ER antagonist AUC score” value is reported as “higher than 0.01”.
